# Source: patent US9133115B2 (ACHILLION PHARMACEUTICALS, INC., priority 2008, dated 2015)
# Test system: HCV replicon
# Assay: HCV replicon replication assay (NPT ELISA) in Huh-7 replicon-containing cells
# Format: cell-based
# Settings: Hepatitis C virus, 72 h; HCV replicon in Huh-7 cells, three days incubation; read-out: EC50
# Experimental: Compounds claimed herein are tested for the ability to inhibit viral replication of the Hepatitis C replicon in cultured cells in which the HCV replicon construct has been incorporated. The HCV replicon system was described by Bartenschlager, et. al (Science, 285, pp. 110-113 (1999)). The replicon system is predictive of in vivo anti-HCV activity; compounds that are active in humans uniformly evidence activity in the replicon assay.
# In this assay HCV replicon containing cells are treated with different concentrations of the test compound to ascertain the ability of the test compound to suppress replication of the HCV replicon. As a positive control, HCV replicon-containing cells are treated with different concentrations of interferon alpha, a known inhibitor of HCV replication. The replicon assay system includes Neomycin Phosphotransferase (NPT) as a component of the replicon itself in order to detect the transcription of replicon gene products in the host cell. Cells in which the HCV replicon is actively replicating have high levels of NPT; the level of NPT is proportional to HCV replication. […] The NPT level of each sample is measured using a captured ELISA.
# A protocol for testing compounds for the ability to inhibit viral replication of the Hepatitis C replicon cultured cells in which the replicon construct has been incorporated, follows.
# The HCV replicon contains, 5′-3′, the HCV-IRES, the neomycin phosphotransferase (neo) gene, the IRES of encephalomyocarditis virus, which directs translation of HCV sequences NS3 to NS5B, and the 3′-NTR. The sequence of the HCV replicon has been deposited in GenBank (Accession no. AJ242652).
# The replicon is transfected into Huh-7 cells using standard methods such as electroporation.
# The equipment and materials include, but are not limited to, Huh-7 HCV replicon-containing cells, maintenance media (DMEM (Dulbecco's modified Eagle media) supplemented with 10% FBS, L-glutamine, non-essential amino acids, penicillin (100 units/ml), streptomycin (100 micrograms/ml), and 500 micrograms/ml of Geneticin (G418), screening media (DMEM supplemented with 10% FBS, L-glutamine, non-essential amino acids, penicillin (100 units/ml) and streptomycin (100 micrograms/ml)), 96 well tissue culture plates (flat bottom), 96 well plates (U bottom for drug dilution), Interferon alpha for positive control, fixation reagent (such as methanol: acetone), primary antibody (rabbit anti-NPTII), secondary antibody: Eu-N1 l, and enhancement solution.
# HCV replicon-containing cells support high levels of viral RNA replicon replication when their density is suitable. Over-confluency causes decreased viral RNA replication. Therefore, cells must be kept growing in log phase in the presence of 500 micrograms/ml of G418. Generally, cells should be passed twice a week at 1: 4-6 dilution. Cell maintenance is conducted as follows:
# HCV replicon-containing cells are examined under a microscope to ensure that cells growing well. Cells are rinsed once with PBS and 2 ml trypsin is added. The cell/trypsin mixture is incubated at 37° C. in a CO2 incubator for 3-5 minutes. After incubation 10 ml of complete media is added to stop the trypsinization reaction. Cells are blown gently, put into a 15 ml tube, and spun at 1200 rpm for 4 minutes. The trypsin/medium solution is removed. Medium (5 ml) is added and the cells are mixed carefully. The cells are counted.
# The cells are then seeded onto 96-well plates at a density of 6000-7500 cells/100 microliters/well (6-7.5×10^5 cells/10 ml/plate). The plates are then incubated at 37° C. in a 5% CO2 incubator.
# Cells are examined under a microscope approximated 24 hours after seeding and prior to adding drugs. If counting and dilution were performed correctly, cells are 60-70% confluent and nearly all cells should attach and spread evenly in the well.
# HCV replicon-containing cells are rinsed with once PBS once; 2 mls of trypsin are then added. Cells are incubated at 37° C. in a 5% CO2 incubator for 3-5 minutes. […]
row,Compound,EC50 [nM]
1,"C=C[C@@H]1C[C@]1(NC(=O)[C@@H]1C[C@@H](OC(=O)Nc2ccc(-c3ccccc3)cc2)CN1C(=O)[C@@H](CC(=O)N1CCCCC1)C(C)(C)C)C(=O)NS(=O)(=O)C1CC1 [Compound 61, (3R,5S)-1-((S)-2-tert-butyl-4-oxo-4-(piperidin-1-yl)butanoyl)-5-((1R,2S)-1-(cyclopropyl-sulfonylcarbamoyl)-2-vinylcyclopropyl-carbamoyl)pyrrolidin-3-yl biphenyl-4-ylcarbamate]",1000 to 10000
2,"C=C[C@@H]1C[C@]1(NC(=O)[C@@H]1C[C@@H](Oc2cc(-c3ccccc3)nc3cc(OC)ccc23)CN1C(=O)[C@@H](CC(=O)N1CCCCC1)C(C)(C)C)C(=O)NS(=O)(=O)c1ccccc1 [Compound 62, (2S,4R)-1-((S)-2-tert-butyl-4-oxo-4-(piperidin-1-yl)butanoyl)-4-(7-methoxy-2-phenylquinolin-4-yloxy)-N-((1R,2S)-1-(phenylsulfonyl-carbamoyl)-2-vinyl-cyclopropyl)pyr-rolidine-2-carboxamide]",< 1000
3,"C=C[C@@H]1C[C@]1(NC(=O)[C@@H]1C[C@@H](Oc2cc(-c3ccccc3)nc3cc(OC)ccc23)CN1C(=O)[C@@H](CC(=O)N1CCCCC1)C(C)(C)C)C(=O)NS(=O)(=O)C(C)C [Compound 63, (2S,4R)-1-((S)-2-tert-butyl-4-oxo-4-(piperidin-1-yl)butanoyl)-N-((1R,2S)-1-(isopropylsulfonyl-carbamoyl)-2-vinylcyclopropyl)-4-(7-methoxy-2-phenylquinolin-4-yloxy)pyrrolidine-2-carboxamide]",< 1000
4,"C=C[C@@H]1C[C@]1(NC(=O)[C@@H]1C[C@@H](Oc2cc(-c3ccccc3)nc3cc(OC)ccc23)CN1C(=O)[C@@H](CC(=O)N1CCCCC1)C(C)(C)C)C(=O)NS(=O)(=O)Cc1ccccc1 [Compound 64, (2S,4R)-N-((1R,2S)-1-(benzylsulfonyl-carbamoyl)-2-vinylcyclopropyl)-1-((S)-2-tert-butyl-4-oxo-4-(piperidin-1-yl)butanoyl)-4-(7-methoxy-2-phenylquinolin-4-yloxy)pyrrolidine-2-carboxamide]",1000 to 10000
5,"C=C[C@@H]1C[C@]1(NC(=O)[C@@H]1C[C@@H](Oc2cc(-c3ccccc3)nc3cc(OC)ccc23)CN1C(=O)[C@@H](CC(=O)N1CCCCC1)C(C)(C)C)C(=O)NS(=O)(=O)C(C)(C)C [Compound 65, (2S,4R)-1-((S)-2-tert-butyl-4-oxo-4-(piperidin-1-yl)butanoyl)-N-((1R,2S)-1-(tert-butylsulfonyl-carbamoyl)-2-vinylcyclopropyl)-4-(7-methoxy-2-phenylquinolin-4-yloxy)pyrrolidine-2-carboxamide]",1000 to 10000
6,"C=C[C@@H]1C[C@]1(NC(=O)[C@@H]1C[C@@H](Oc2cc(-c3ccccc3)nc3cc(OC)ccc23)CN1C(=O)[C@@H](CC(=O)N1CCCCC1)C(C)(C)C)C(=O)NS(=O)(=O)C(F)(F)F [Compound 66, (2S,4R)-1-((S)-2-tert-butyl-4-oxo-4-(piperidin-1-yl)butanoyl)-4-(7-methoxy-2-phenylquinolin-4-yloxy)-N-((1R,2S)-1-(trifluoromethyl-sulfonylcarbamoyl)-2-vinylcyclo-propyl)pyrrolidine-2-carboxamide]",1000 to 10000
7,"C=C[C@@H]1C[C@]1(NC(=O)[C@@H]1C[C@@H](Oc2cc(-c3ccccc3)nc3cc(OC)ccc23)CN1C(=O)[C@@H](CC(=O)N1CCCCC1)C(C)(C)C)C(=O)NS(=O)(=O)c1ccc(Cl)cc1 [Compound 67, (2S,4R)-1-((S)-2-tert-butyl-4-oxo-4-(piperidin-1-yl)butanoyl)-N-((1R,2S)-1-(4-chlorophenyl-sulfonylcarbamoyl)-2-vinylcyclopropyl)-4-(7-methoxy-2-phenylquinolin-4-yloxy)pyrrolidine-2-carboxamide]",< 1000
8,"C=C[C@@H]1C[C@]1(NC(=O)[C@@H]1C[C@@H](Oc2cc(-c3ccccc3)nc3cc(OC)ccc23)CN1C(=O)[C@@H](CC(=O)N1CCCCC1)C(C)(C)C)C(=O)NS(C)(=O)=O [Compound 68, (2S,4R)-1-((S)-2-tert-butyl-4-oxo-4-(piperidin-1-yl)butanoyl)-4-(7-methoxy-2-phenylquinolin-4-yloxy)-N-((1R,2S)-1-(methylsulfonyl-carbamoyl)-2-vinyl-cyclopropyl)pyr-rolidine-2-carboxamide]",< 1000
9,"C=C[C@@H]1C[C@]1(NC(=O)[C@@H]1C[C@@H](Oc2cc(-c3ccccc3)nc3cc(OC)ccc23)CN1C(=O)[C@@H](CC(=O)N1CCCCC1)C(C)(C)C)C(=O)NS(=O)(=O)c1ccc(C)cc1 [Compound 69, (2S,4R)-1-((S)-2-tert-butyl-4-oxo-4-(piperidin-1-yl)butanoyl)-4-(7-methoxy-2-phenylquinolin-4-yloxy)-N-((1R,2S)-1-(p-tolylsulfonyl-carbamoyl)-2-vinyl-cyclopropyl)pyr-rolidine-2-carboxamide]",< 1000
10,"C=C[C@@H]1C[C@]1(NC(=O)[C@@H]1C[C@@H](Oc2nc(-c3ccccc3)cc3cc(OC)ccc23)CN1C(=O)[C@@H](CC(=O)N1CCCCC1)C(C)(C)C)C(=O)NS(=O)(=O)C1CC1 [Compound 70, (2S,4R)-1-((S)-2-tert-butyl-4-oxo-4-(piperidin-1-yl)butanoyl)-N-((1R,2S)-1-(cyclo-propylsulfonyl-carbamoyl)-2-vinylcyclopropyl)-4-(6-methoxy-3-phenylisoquinolin-1-yloxy)pyrrolidine-2-carboxamide]",< 1000
11,"C=C[C@@H]1C[C@]1(NC(=O)[C@@H]1C[C@@H](Oc2nc(-c3ccccc3)cc3cc(OC)ccc23)CN1C(=O)[C@@H](CC(=O)N1CCOCC1)C(C)(C)C)C(=O)NS(=O)(=O)C1CC1 [Compound 71, (2S,4R)-1-((S)-2-tert-butyl-4-morpholino-4-oxobutanoyl)-N-((1R,2S)-1-(cyclopropylsulfonyl-carbamoyl)-2-vinylcyclopropyl)-4-(6-methoxy-3-phenylisoquinolin-1-yloxy)pyrrolidine-2-carboxamide]",< 1000
12,"C=C[C@@H]1C[C@]1(NC(=O)[C@@H]1C[C@@H](Oc2cc(-c3ccccc3)nc3cc(OC)ccc23)CN1C(=O)[C@@H](CC(=O)N1CCCCC1)C(C)(C)C)C(=O)NS(=O)(=O)c1cccs1 [Compound 72, (2S,4R)-1-((S)-2-tert-butyl-4-oxo-4-(piperidin-1-yl)butanoyl)-4-(7-methoxy-2-phenylquinolin-4-yloxy)-N-((1R,2S)-1-(thiophen-2-ylsulfonylcarbamoyl)-2-vinylcyclopropyl)pyr-rolidine-2-carboxamide]",< 1000
13,"C=C[C@@H]1C[C@]1(NC(=O)[C@@H]1C[C@@H](Oc2cc(-c3ccccc3)nc3cc(OC)ccc23)CN1C(=O)[C@@H](CC(=O)N1CCCCC1)C(C)(C)C)C(=O)NS(=O)(=O)c1cn(C)cn1 [Compound 73, (2S,4R)-1-((S)-2-tert-butyl-4-oxo-4-(piperidin-1-yl)butanoyl)-4-(7-methoxy-2-phenylquinolin-4-yloxy)-N-((1R,2S)-1-(1-methyl-1H-imidazol-4-ylsulfonylcarbamoyl)-2-vinylcycloprop-yl)pyrrolidine-2-carboxamide]",1000 to 10000
14,"C=C[C@@H]1C[C@]1(NC(=O)[C@@H]1C[C@@H](Oc2cc(-c3ccccc3)nc3cc(OC)ccc23)CN1C(=O)[C@@H](CC(=O)N1CCC2CCCCC2C1)C(C)(C)C)C(=O)NS(=O)(=O)C1CC1 (stereo partly drawn) [Compound 74, (2S,4R)-1-((2S)-2-tert-butyl-4-(octa-hydroisoquinolin-2(1H)-yl)-4-oxobutanoyl)-N-((1R,2S)-1-(cyclo-propylsulfonyl-carbamoyl)-2-vinylcycloprop-yl)-4-(7-methoxy-2-phenylquinolin-4-yloxy)pyrrolidine-2-carboxamide]",< 1000
